The record followed here is patent US9233929B2, “Fungicide N-cycloalkyl-N-bicyclimethylene-carboxamide derivatives” (priority 2009, dated 2016).

As a reminder, the logP is the decadic logarithm of the partition coefficient of the neutral form, usually between octanol and water. High values mean higher lipophilicity, low ones lower lipophilicity.

Structures are written as SMILES.

The data set in a line: logP. It counts as physicochemical.

As to `Cc1nn(C)c(F)c1C(=S)N(C1CC1)C(C)C1CCCc2ccccc21` (centres unmarked) [I.3, N-cyclopropyl-5-fluoro-1,3-dimethyl-N-[1-(1,2,3,4-tetrahydronaphthalen-1-yl)ethyl]-1H-pyrazole-4-carbothioamide], the logP came out at 4.39.
As to `CC(N(C(=O)c1cn(C)nc1C(F)F)C1CC1)C1(O)CCCc2ccccc21` (centres unmarked) [I.10, N-cyclopropyl-3-(difluoromethyl)-N-[1-(1-hydroxy-1,2,3,4-tetrahydronaphthalen-1-yl)ethyl]-1-methyl-1H-pyrazole-4-carboxamide], the logP is 2.94.
